Assay results from patent US20190343801A1, “COMPOSITIONS AND METHODS FOR CONTROLLING NATURAL KILLER CELL ACTIVATION AND FUNCTION” (BAR ILAN UNIVERSITY, priority 2017, published 2019).
Structures can show the parent of a compound that is named as a salt.

System: SHP-1 conformation
Test: YFP-SHP1-CFP FRET sensor analysis of SHP-1 conformation in YTS cells
Format: cell-based
Settings: inhibitory NKIS (221-Cw4), untreated 11.5±2.5%; 1 μM JAS, 25 μM Y-27
Experimental: Active “open” conformation of SHP-1 results in a large distance between the two fluorescent proteins with no FRET signal. The inactivated, “closed”, conformation of SHP-1 brings the N′- and C′-termini into proximity resulting in high FRET efficiency.
YTS-2DL1 cells transiently expressing YFP-SHP1-CFP were treated with 25 μM Y-27 or left untreated. Cells were incubated on slides with 221-Cw4 or Cw7 target cells expressing mCherry, following 5 min of conjugation at 37° C., cells were treated with 1 μM JAS, and incubated for 5 min before fixation. FRET analysis was performed (see Experimental procedures). […]
FRET was measured by the donor-sensitized acceptor fluorescence technique. Briefly, three sets of filters were used: one optimized for donor fluorescence (excitation, 458 nm, and emission, 465 to 510 nm), a second for acceptor fluorescence (excitation, 514 nm, and emission, 530 to 600 nm), and a third for FRET (excitation, 458 nm; emission, 530 to 600 nm).
FRET correction was performed as previously described. In brief, the non-FRET components were calculated and removed using calibration curves derived from images of single-labeled CFP- or YFP-expressing cells. […] A calibration curve was derived that defined the amount of CFP fluorescence seen in the FRET image as a function of the fluorescence in the CFP image. […]

SMILES: C[C@@H](N)C1CCC(C(=O)Nc2ccncc2)CC1 (stereo partly drawn) [Formula Y-27, 4-[(1R)-1-aminoethyl]-N N-4-pyridinyl-trans-cyclohexanecarboxamide, dihydrochloride]
- FRET efficiency: 23.2±1.3%
